Results from paper PMC10945480 (Journal of Medicinal Chemistry, 2024).

How the values were obtained:
[1] = system: breast cancer MDA-MB-231; assay: Cell viability, resazurin assay, MDA-MB-231; details: Homo sapiens, MDA-MB-231, 24 h, read-out: MDA-MB-231 IC50
Procedure: (§3) Cells were maintained in a humidified incubator at 37 °C in 5% CO2, and cell viability was determined with the resazurin assay (Cayman Chemical, USA) after the incubation with compounds for indicated concentrations and times or DMSO as control.[72]

[2] = system: multiple myeloma RPMI8226; assay: Cell viability, resazurin assay, RPMI8226; details: for S.I. (EAhy926/RPMI8226), selectivity index: 24 h IC50 ratio; for IC50: Homo sapiens, RPMI-8226, 24 h, read-out: RPMI8226 IC50
Procedure: as §3

[3] = biological target: purified human recombinant PDI (rPDI) (Homo sapiens, UniProt P07237); assay: Recombinant PDI reductase activity (Di-E-GSSG assay); details: read-out: rPDI IC50; human recombinant PDI, Di-E-GSSG, 5 μM DTT
Procedure: (§4) In this assay, a nonfluorescent substrate, dieosin glutathione disulfide (Di-E-GSSG), was reduced into a fluorescent product eosin-glutathione (E-GSH) by platelet surface PDI in the presence of 5 μM dithiothreitol (DTT).

[4] = biological target: platelet surface PDI (Homo sapiens, UniProt P07237); assay: Cell surface PDI reductase activity on intact human platelets (Di-E-GSSG assay); details: read-out: Surface PDI IC50; intact human platelets, Di-E-GSSG, 5 μM DTT
Procedure: as §4

[5] = system: human vascular endothelial EA.hy926 cells; assay: Cell viability, resazurin assay, EA.hy926; details: EA.hy 926, 24 h, read-out: EAhy926 IC50
Procedure: as §3

[6] = system: washed human platelets; assay: U46619-induced platelet aggregation; format: cell-based; details: Platelet; washed human platelets, U46619 (1 μM)
Procedure: (§1) The antiplatelet effects of the JUG derivatives were evaluated by measuring human platelet aggregation, which can be regulated by cell surface PDI. Platelet aggregation was induced with platelet activators U46619 (a mimetic of thromboxane A2) and collagen (binding to GPVI).
(§2) Washed human platelets were prepared from acid citrate dextrose-anticoagulated blood of healthy human volunteers as described previously.[73] The study was approved by the Institutional Review Board of Kaohsiung Medical University, and informed consent was obtained from every volunteer. Platelet aggregation was measured by using a turbidimetric aggregometer (Chrono-Log Co., USA) under stirring conditions (1200 rpm) at 37 °C. The extent of platelet aggregation was measured as the maximal increase of light transmission after the addition of the stimulators U46619 and collagen.[73] In the TCIPA assay, platelet aggregation was induced by A549 (1 × 10^4 cells/mL), MDA-MB-231 (1 × 10^2 cells/mL), or RPMI8226 (1 × 10^5 cells/mL) cancer cells in the presence of 0.375% plasma.[74]

[7] = system: washed human platelets; assay: Collagen-induced platelet aggregation; format: cell-based; details: Platelet; washed human platelets, collagen (5 μg/mL)
Procedure: as §1, §2

[8] = Parallel artificial membrane permeability assay (PAMPA); details: 50 μM, 25 ℃, 3 h, verapamil = 100%, ranitidine = 0%
Procedure: 1. Parallel artificial membrane permeability assay (PAMPA). […]
evolution instruments from pION Inc. In the PAMPA assay, a set of sandwich plates consists of a 96-well microtiter donor plate at the bottom and a 96-well filter acceptor plate on the top from […]
The stock solutions of samples were prepared at 10 mM concentrations in DMSO and stored at 0 ℃ before use. Before being added to a 96-well filter plate, the stock solution was diluted first with buffer to achieve a final sample concentration of 50 μM and to reduce the DMSO concentration below 1% (v/v). Each well of the 96-well donor plate was filled with a 200 μL diluted sample solution (50 μM), and the 96-well filter acceptor plate was then wetted with a 5 μL 2% w/v dioleyoylphosphatidylcholine (DOPC) in n-dodecane and subsequently placed on the donor wells.
Immediately, the acceptor wells were filled with 200 μL of buffer solution and the PAMPA plate sandwich was sealed and incubated at 25 ℃ for 3 h. After reaching the permeation time, the PAMPA plate sandwich was separated and transferred to 96-well UV plates respectively. The amounts of drugs in both the donor and acceptor compartments were measured by comparing the experimental spectra with the UV spectrum (220∼400 nm) obtained from reference standards.

[9] = system: lung cancer A549; assay: Cell viability, resazurin assay, A549; details: Homo sapiens, A549, 24 h, read-out: A549 IC50
Procedure: as §3

[10] = system: glioma U87; assay: Cell viability, resazurin assay, U87; details: Homo sapiens, 24 h, read-out: U87 IC50
Procedure: as §3

[11] = UPLC-MS analysis of compound metabolites in water with or without GSH; format: physicochemical; details: 37 °C, 30 min
Procedure: GSH is the major cellular nonprotein thiol, which exists within cells at millimolar concentrations (1–8 mM) while is present extracellularly at only a few micromolar.[53] The high concentrations of intracellular GSH thus may compete with the binding of PDI to covalent PDI inhibitors.[54] […] In this assay, the noncovalent PDI inhibitor isoquercetin was used as a negative control.
Compounds (400 μM) were incubated in water (250 μL) with or without GSH (4 mM) at 37 °C for 30 min. The compound mixture was diluted with methanol (250 μL) and used for UPLC-MS analysis Metabolite analysis was performed on an ACQUITY UPLC I-Class/SQ Detector 2 (Waters, Milford, USA). The reverse phase BEH C18 column (100 mm × 2.1 mm, 1.7 μm, Waters) and VanGuard BEH C18 guard column (5 mm × 2.1 mm, 1.7 μm, Waters) were used. All data were acquired by Empower 3. The mobile phase for LC separation was Millipore water (A) and acetonitrile (B), and the program was as follows: 0.00 min 90% A → 0.50 min 90% A → 6.50 min 5% A → 8.50 min 5% A → 8.60 min 90% A → 9.00 min 90% A; at a rate of 0.4 mL/min for 9.00 min with 5 μL per injection. The temperature of the column oven was maintained at 40 °C. Mass spectrometer parameters were set as follows: cone voltage, 40.0 V, for positive/negative ion mode; desolvation temperature, 200 °C; cone gas flow(N2), 1 L/h; and desolvation gas flow (N2), 650 L/h.

[12] = system: washed human platelets coincubated with A549 cancer cells; assay: Tumor cell-induced platelet secretion (PDGF, ATP); format: cell-based
Procedure: (a) Washed human platelets were coincubated with A549 cancer cells under the same conditions as described in Figure 4. Secretion of PDGF and ATP were determined with the enzyme-linked immunosorbent assay (ELISA) and bioluminescent assay, respectively. (b) A549 cancer cells were coincubated with washed human platelets at 37 °C and 5% CO2 in a cell culture incubator for 48 h. After washing with PBS, the numbers of viable cancer cells were determined by trypan blue exclusion. Data are mean ± SEM of at least three independent experiments.
Washed human platelets were coincubated with cancer cells under the same conditions as described in the TCIPA assay. After a 25 min incubation in the aggregometer, the samples were centrifuged at 13,000g for 1 min. The concentrations of PDGF-BB and ATP in the supernatants were determined using an ELISA kit (Abcam, Cambridge, UK) and an ATP bioluminescent assay kit (Sigma, MO, USA), respectively.[52]

[13] = system: washed human platelets coincubated with A549, MDA-MB-231, or RPMI8226 cancer cells; assay: Tumor cell-induced platelet aggregation (TCIPA); format: cell-based; details: anti-TF antibody 20 μg/mL, hirudin 0.01 μM, aspirin 100 μM, ticagrelor 1 μM

Chain of purified human recombinant PDI (rPDI) (P07237 18-508): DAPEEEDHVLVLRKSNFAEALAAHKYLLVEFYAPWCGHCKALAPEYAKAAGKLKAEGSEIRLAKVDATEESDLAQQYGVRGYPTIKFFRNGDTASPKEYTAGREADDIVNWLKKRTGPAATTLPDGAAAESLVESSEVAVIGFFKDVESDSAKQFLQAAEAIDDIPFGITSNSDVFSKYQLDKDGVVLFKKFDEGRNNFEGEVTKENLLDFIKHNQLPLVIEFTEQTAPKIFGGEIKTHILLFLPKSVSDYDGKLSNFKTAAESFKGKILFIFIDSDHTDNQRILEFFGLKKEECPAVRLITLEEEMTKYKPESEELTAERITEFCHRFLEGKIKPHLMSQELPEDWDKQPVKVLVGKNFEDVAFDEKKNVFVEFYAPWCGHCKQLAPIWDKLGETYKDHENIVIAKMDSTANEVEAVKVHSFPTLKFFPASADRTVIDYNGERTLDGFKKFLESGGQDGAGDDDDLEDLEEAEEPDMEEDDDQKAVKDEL
Chain of platelet surface PDI (P07237 18-508): as above

Compound	IC50 [1] [µM]	IC50 [2] [µM]	IC50 [3] [µM]	IC50 [4] [µM]	IC50 [6] [µM]	IC50 [7] [µM]	Permeability (%) [8] [%]	IC50 [9] [µM]	IC50 [10] [µM]	stability in aqueous conditions (UPLC-MS) ([11]; 400 μM in water)	GSH adduct formation after GSH treatment (UPLC-MS) ([11]; 400 μM, GSH 4 mM)	S.I. (EAhy926/RPMI8226), selectivity index [2]	IC50 [5] [µM]	tumor cell-induced increase in extracellular PDGF and ATP (platelet secretion) [12]	effect of comparators on TCIPA [13]
O=C1C=C(Sc2ccc(F)cc2)C(=O)c2c(O)cccc21 [Compound 15, 2-((4-Fluorophenyl)thio)-8-hydroxynaphthalene-1,4-dione]	10.6 ± 0.85	2.59 ± 0.25	1.16 ± 0.47	1.67 ± 0.15	1.88 ± 0.18	0.83 ± 0.11	85.4	38.3 ± 2.65	17.3 ± 0.68	–	–	>7.7	> 20	–	–
O=C1C=C(Br)C(=O)c2c(O)cccc21 [Compound 17, 2-Bromo-8-hydroxynaphthalene-1,4-dione]	14.1 ± 0.79	4.21 ± 0.43	1.99 ± 0.63	1.13 ± 0.25	1.76 ± 0.08	0.52 ± 0.21	16.9	15.3 ± 0.74	> 20	–	–	>4.8	> 20	–	–
CC(C)(C)c1ccc(CSC2=CC(=O)c3cccc(O)c3C2=O)cc1 [Compound 20, 2-((4-(tert-Butyl)benzyl)thio)-8-hydroxynaphthalene-1,4-dione]	> 20	4.33 ± 0.34	2.01 ± 0.55	1.2 ± 0.31	6.32 ± 0.3	2.92 ± 0.77	17.1	> 50	> 20	–	–	>4.6	> 20	–	–
CCCSc1nc(N[C@@H]2C[C@H]2c2ccc(F)c(F)c2)c2nnn([C@@H]3C[C@H](OCCO)[C@@H](O)[C@H]3O)c2n1 [ticagrelor, reference compound]	–	–	–	–	–	–	–	–	–	–	–	–	–	not	no or little effect
hirudin	–	–	–	–	–	–	–	–	–	–	–	–	–	–	able to prevent the TCIPA

More lines, main results first:

IC50 [1] [µM]	IC50 [2] [µM]	IC50 [3] [µM]	IC50 [4] [µM]	IC50 [6] [µM]	IC50 [7] [µM]	Permeability (%) [8] [%]	IC50 [9] [µM]	IC50 [10] [µM]	stability in aqueous conditions (UPLC-MS) ([11]; 400 μM in water)	GSH adduct formation after GSH treatment (UPLC-MS) ([11]; 400 μM, GSH 4 mM)	Compound	S.I. (EAhy926/RPMI8226), selectivity index [2]	IC50 [5] [µM]	tumor cell-induced increase in extracellular PDGF and ATP (platelet secretion) [12]	effect of comparators on TCIPA [13]
6.62 ± 1.79	0.57 ± 0.02	1.37 ± 0.26	1.12 ± 0.31	1.35 ± 0.13	0.35 ± 0.03	61.4	12 ± 1.47	12.6 ± 0.68	–	–	COc1ccc(OC2=CC(=O)c3cccc(O)c3C2=O)cc1 [Compound 21, 2-(4-Methoxyphenoxy)-8-hydroxynaphthalene-1,4-dione]	10.6	6.03 ± 0.07	–	–
13.1 ± 1.59	3.88 ± 0.23	0.77 ± 0.2	0.53 ± 0.11	4.61 ± 1.1	7.04 ± 1.71	42.95	7.59 ± 0.16	5.13 ± 0.29	–	–	O=C1C=C(c2ccc(O)cc2O)C(=O)c2c(O)cccc21 [Compound 29, 2-(2,4-Dihydroxyphenyl)-8-hydroxynaphthalene-1,4-dione]	1.4	5.49 ± 0.09	–	–
16 ± 1.35	5.89 ± 0.32	2.27 ± 0.8	0.47 ± 0.05	1.37 ± 0.03	5.19 ± 1.22	12.64	17.55 ± 0.06	11.2 ± 1.01	remained intact in aqueous conditions	only a small amount	COc1ccc(SC2=C(c3ccc(O)cc3O)C(=O)c3c(O)cccc3C2=O)cc1 [Compound 30, 2-(2,4-Dihydroxyphenyl)-3-((4-methoxyphenyl)thio)-8-hydroxynaphthalene-1,4-dione]	1.9	11 ± 0.33	–	–
